Source: patent US12180196B2, “Azetidine-substituted pyridine and pyrazine compounds as inhibitors of cannabinoid receptor 2” (HOFFMANN-LA ROCHE INC., priority 2018, dated 2024)

The molecules below were run against human CB2 (Homo sapiens (Human), UniProt P34972) (assay: Radioligand binding assay, human CB2 (CNR2) membranes, [3H]-CP-55,940). Settings: HEK cell membranes, [3H]-CP-55,940 radioligand.
Experimental: Radioligand Binding Assay
The affinity of the compounds of the invention for cannabinoid CB1 receptors was determined using recommended amounts of membrane preparations (PerkinElmer) of human embryonic kidney (HEK) cells expressing the human CNR1 or CNR2 receptors in conjunction with 1.5 or 2.6 nM [3H]-CP-55,940 (Perkin Elmer) as radioligand, respectively. Binding was performed in binding buffer (50 mM Tris, 5 mM MgCl2, 2.5 mM EDTA, and 0.5% (wt/vol) fatty acid free BSA, pH 7.4 for CB1 receptor and 50 mM Tris, 5 mM MgCl2, 2.5 mM EGTA, and 0.1% (wt/vol) fatty acid free BSA, pH 7.4 for CB2 receptor) in a total volume of 0.2 ml for 1 h at 30° C. shaking. The reaction was terminated by rapid filtration through microfiltration plates coated with 0.5% polyethylenimine (UniFilter GF/B filter plate; Packard). Bound radioactivity was analyzed for Ki using nonlinear regression analysis (Activity Base, ID Business Solution, Limited), with the Kd values for [3H]CP55,940 determined from saturation experiments. The compounds of formula (I) show an excellent affinity for the CB2 receptor.
The compounds according to formula (I) have an activity in the above assay (Ki) between 0.5 nM and 10 μM. Particular compounds of formula (I) have an activity in the above assay (Ki) between 0.5 nM and 3 μM. Other particular compounds of formula (I) have an activity in the above assay (Ki) between 0.5 nM and 100 nM.

Chain of human CB2 (P34972 whole entry): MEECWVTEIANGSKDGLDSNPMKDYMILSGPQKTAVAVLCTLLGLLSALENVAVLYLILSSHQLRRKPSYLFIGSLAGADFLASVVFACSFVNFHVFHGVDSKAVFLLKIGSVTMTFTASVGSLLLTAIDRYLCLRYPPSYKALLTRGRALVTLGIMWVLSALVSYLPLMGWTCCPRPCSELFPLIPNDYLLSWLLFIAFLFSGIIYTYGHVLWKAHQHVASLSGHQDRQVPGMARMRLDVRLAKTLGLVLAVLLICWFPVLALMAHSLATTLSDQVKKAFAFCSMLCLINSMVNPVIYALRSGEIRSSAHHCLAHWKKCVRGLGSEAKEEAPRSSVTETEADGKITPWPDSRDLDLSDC

| Ki | Compound |
| --- | --- |
| 6 nM | CCOC(=O)C(CC)(CC)NC(=O)c1ccc(N2CC(F)C2)c(OCC2CC2)n1 [Example 4, Ethyl 2-{[6-(cyclopropylmethoxy)-5-(3-fluoroazetidin-1-yl)pyridine-2-carbonyl]amino}-2-ethylbutanoate] |
| 5 nM | CCOC(=O)C(CC)(CC)NC(=O)c1ccc(N2CC(OCCF)C2)c(OCC2CC2)n1 [Example 2, Ethyl 2-({6-(cyclopropylmethoxy)-5-[3-(2-fluoroethoxy)azetidin-1-yl]pyridine-2-carbonyl}amino)-2-ethylbutanoate] |
| 447 nM | NC(=O)CC1(NC(=O)c2ccc(N3CC(OCCF)C3)c(OCC3CC3)n2)COC1 [Example 5, N-[3-(2-Amino-2-oxoethyl)oxetan-3-yl]-6-(cyclopropylmethoxy)-5-[3-(2-fluoroethoxy)azetidin-1-yl]pyridine-2-carboxamide] |

| Compound | Ki |
| --- | --- |
| CCOC(=O)C(CC)(CC)NC(=O)c1ccc(N2CC(OCCCF)C2)c(OCC2CC2)n1 [Example 1, Ethyl 2-({6-(cyclopropylmethoxy)-5-[3-(3-fluoropropoxy)azetidin-1-yl]pyridine-2-carbonyl}amino)-2-ethylbutanoate] | 19 nM |
